Biological target: T1, LSD1 (lysine-specific histone demethylase 1A, KDM1A) (Homo sapiens, UniProt O60341)
T1 construct: recombinant human LSD1 (BPS#50103)
Assay: AlphaScreen demethylase assay with biotinylated histone H3 peptide substrate and purified recombinant LSD1
Format: biochemical

C/C=C(/C=O)[C@@H](CC=O)CC(=O)OCCc1ccc(O)c(O)c1 [oleacein]
IC50: ~2.5 µM
